# Source: ChEMBL document CHEMBL1145260, “Design, synthesis and structure-activity relationships of 6-O-arylpropargyl diazalides with potent activity against multidrug-resistant Streptococcus pneumoniae” (2005)
# Tests used:
# Assay type in all cases: functional
# Streptococcus pneumoniae [1] = assay: Minimum inhibitory concentration against Streptococcus pneumoniae 5979 strain
# Haemophilus influenzae = assay: Minimum inhibitory concentration against Haemophilus influenzae GYR1435 (erythromycin susceptible strain)
# Streptococcus pneumoniae [2] = assay: Minimum inhibitory concentration against Streptococcus pneumoniae 5649 strain
# Streptococcus pyogenes [3] = assay: Minimum inhibitory concentration against Streptococcus pyogenes EES61 (erythromycin-susceptible strain)
# Staphylococcus aureus [4] = assay: Minimum inhibitory concentration against Staphylococcus aureus 6538P (erythromycin-susceptible strain)
# Staphylococcus aureus [5] = assay: Minimum inhibitory concentration against Staphylococcus aureus A5177 (erythromycin-resistant strain
# Streptococcus pneumoniae [6] = assay: Minimum inhibitory concentration against Streptococcus pneumoniae ATCC 6303 (erythromycin-susceptible strain)
# Streptococcus pyogenes [7] = assay: Minimum inhibitory concentration against Streptococcus pyogenes 930 (erythromycin-resistant strain)
SMILES,MIC (Streptococcus pneumoniae [1]) [µg/mL],MIC (Haemophilus influenzae) [µg/mL],MIC (Streptococcus pneumoniae [2]) [µg/mL],MIC (Streptococcus pyogenes [3]) [µg/mL],MIC (Staphylococcus aureus [4]) [µg/mL],MIC (Staphylococcus aureus [5]) [µg/mL],MIC (Streptococcus pneumoniae [6]) [µg/mL],MIC (Streptococcus pyogenes [7]) [µg/mL]
CC[C@H]1OC(=O)[C@H](C)C(=O)[C@H](C)[C@@H](O[C@@H]2O[C@H](C)C[C@H](N(C)C)[C@H]2O)[C@@](C)(OCC#CCCc2ccc(-c3cccs3)cc2)C[C@@H](C)C2=NCCN3C(=O)O[C@@]1(C)[C@H]3[C@H]2C,0.125,8,0.25,≤ 0.008,1,0.5,0.015,0.5
CC[C@H]1OC(=O)[C@H](C)C(=O)[C@H](C)[C@@H](O[C@@H]2O[C@H](C)C[C@H](N(C)C)[C@H]2O)[C@@](C)(OCC#Cc2cccnc2)C[C@@H](C)C2=NCCN3C(=O)O[C@@]1(C)[C@H]3[C@H]2C,> 128,2,1,0.03,0.2,0.2,0.03,64
CC[C@H]1OC(=O)[C@H](C)C(=O)[C@H](C)[C@@H](O[C@@H]2O[C@H](C)C[C@H](N(C)C)[C@H]2O)[C@@](C)(OCC#Cc2cccs2)C[C@@H](C)C2=NCCN3C(=O)O[C@@]1(C)[C@H]3[C@H]2C,> 128,4,0.25,0.03,0.1,0.1,0.03,64
CC[C@H]1OC(=O)[C@@](C)(F)C(=O)[C@H](C)[C@@H](O[C@@H]2O[C@H](C)C[C@H](N(C)C)[C@H]2O)[C@@](C)(OCC#Cc2ccc(-c3nnn(C)n3)s2)C[C@@H](C)C2=NCCN3C(=O)O[C@@]1(C)[C@H]3[C@H]2C,0.125,4,0.25,≤ 0.008,0.5,0.125,≤ 0.008,2
CC[C@H]1OC(=O)[C@H](C)C(=O)[C@H](C)[C@@H](O[C@@H]2O[C@H](C)C[C@H](N(C)C)[C@H]2O)[C@@](C)(OCC#Cc2ccc(-c3cccs3)cc2)C[C@@H](C)C2=NCCN3C(=O)O[C@@]1(C)[C@H]3[C@H]2C,≤ 0.008,2,≤ 0.008,≤ 0.008,0.5,0.03,≤ 0.008,4
CC[C@H]1OC(=O)[C@H](C)C(=O)[C@H](C)[C@@H](O[C@@H]2O[C@H](C)C[C@H](N(C)C)[C@H]2O)[C@@](C)(OCC#Cc2cnc3c(F)cccc3c2)C[C@@H](C)C2=NCCN3C(=O)O[C@@]1(C)[C@H]3[C@H]2C,4,2,0.25,≤ 0.008,0.06,0.1,0.004,0.5
CC[C@H]1OC(=O)[C@@](C)(F)C(=O)[C@H](C)[C@@H](O[C@@H]2O[C@H](C)C[C@H](N(C)C)[C@H]2O)[C@@](C)(OCC#Cc2cnc3c(F)cccc3c2)C[C@@H](C)C2=NCCN3C(=O)O[C@@]1(C)[C@H]3[C@H]2C,0.125,4,0.125,≤ 0.008,0.25,0.125,≤ 0.008,0.25
CC[C@H]1OC(=O)[C@H](C)C(=O)[C@H](C)[C@@H](O[C@@H]2O[C@H](C)C[C@H](N(C)C)[C@H]2O)[C@@](C)(OCC#Cc2cnc3c(OC)cccc3c2)C[C@@H](C)C2=NCCN3C(=O)O[C@@]1(C)[C@H]3[C@H]2C,8,2,0.06,≤ 0.008,0.25,0.06,≤ 0.008,4
